EP3818828A1 (priority 2019, dated 2021)
≈ marks a conversion by molar mass, not a printed value.

What was measured:
Fusarium graminearum = test: microbe, parasite or virus in culture; assay type: cell-based; details: for EC50: median inhibition concentration
[1] = test system: damping-off (P. aphanidermatum, P.capsici); test: In-vivo greenhouse control of damping-off of peppers; details: Pepper; sick soil; 0.80 mg/mL (active ingredients)
Procedure: (§1) 3.88 g of 3-(3',4'-methylenedioxy phenyl)-N-n-propyl acrylamide was weighed and dissolved in 25 g of absolute ethyl alcohol, then 6 g of emulsifier 0203B was added, and mixed uniformly with stirring to get 10% of 3-(3',4'-methylenedioxy phenyl)-N-n-propyl acrylamide EC.
(§2) 5.61 g of 3-(3',4'-methylenedioxy phenyl)-piperidine acrylate was weighed and dissolved in 25 g of absolute ethyl alcohol, then 6 g of emulsifier 0203B was added, and mixed uniformly with stirring to get 14% of 3-(3',4'-methylenedioxy phenyl)-piperidine acrylate EC.
(§3) Sick soil of damping-off (P. aphanidermatum, P.capsici) was collected from the fields of tomatoes, eggplants and peppers in a solar greenhouse, and mixed evenly in equal proportion. Tomatoes (Variety: Song Tian Fen Yang Yang, 100 grains), eggplants (Variety: Lanza No. 2 F1 long eggplant, 100 grains), pepper (Longjiao No. 2 F1, 100 grains) were seeded quantitatively with the sick soil in pots (diameter: 15 cm) in a greenhouse, additionally with sterile vermiculite as the control (each 100 grains for determining the germination rate). […] Mortality of seedlings was investigated after the seedlings had grown 2 true leaves, and the control effect of each treatment on damping-off was calculated. […]

[2] = test system: damping-off (P. aphanidermatum, P.capsici); test: In-vivo greenhouse control of damping-off of tomatoes; details: Tomato; sick soil; 0.80 mg/mL (active ingredients)
Procedure: as §1, §2, §3

cucumber powdery mildew = test: In-vivo greenhouse determination of systemic action (root-irrigation) on cucumber powdery mildew
Procedure: as §2
Cucumber (Variety: Tianjin Mici) was sown in big pots (with a diameter of 30 cm) in a greenhouse, remaining 3 plants for each pot after emergence. The first root-irrigation was started at the early onset of cucumber powdery mildew (first appearance of spots on the true leaves). 14% of 3-(3',4'-methylenedioxy phenyl)-piperidine acrylate EC was diluted at three concentrations of 1.00, 0.667 and 0.50 mg/mL (active ingredients), 500 mL liquor for each pot. The root-irrigations were conducted every 7 days consecutively for 3 times. 10 days after the third root-irrigation, the number of sick leaves at each grade of cucumber powdery mildew was investigated for the whole plant following the grading standard of 9 grades, to calculate the disease index and the control effect.

`O=C(/C=C/c1ccc2c(c1)OCO2)N1CCCCC1` [3-(3',4'-methylenedioxyphenyl)-piperidine acrylate] was tested, and the “Relative Toxicity (Compared to Chlorothalonil)” value (Fusarium graminearum; EC50 of chlorothalonil / EC50 of agent) was 5.89, the “Relative Toxicity (Compared to Procymidone)” value (Fusarium graminearum; EC50 of procymidone / EC50 of agent) was 1.80 and the EC50 (Fusarium graminearum) was 80 µg/mL (≈ 309 µM). The EC50 (Fusarium graminearum; listed as 66#) was 79.6 µg/mL (≈ 307 µM), the “Control Effect” value [1] was 67.71% and the “Control Effect” value [2] was 61.41%. For the same compound, the systemic activity (cucumber powdery mildew; cucumber powdery mildew, uptake by roots and delivery upwards) was “no systemic activity” and the “effects of root-irrigations on cucumber powdery mildew” value (cucumber powdery mildew; root-irrigations at 1.00, 0.667 and 0.50 mg/mL at the early onset) was “no effects”.
